Legend:
[1] = biological target: T1, SIRT5 (Homo sapiens, UniProt Q9NXA8); assay: Western blot of CPS1Ac in HEK293 cells; assay type: cell-based
T1 construct: endogenous in cells; host or cells: HEK293
T1 sequence (Q9NXA8 37-310): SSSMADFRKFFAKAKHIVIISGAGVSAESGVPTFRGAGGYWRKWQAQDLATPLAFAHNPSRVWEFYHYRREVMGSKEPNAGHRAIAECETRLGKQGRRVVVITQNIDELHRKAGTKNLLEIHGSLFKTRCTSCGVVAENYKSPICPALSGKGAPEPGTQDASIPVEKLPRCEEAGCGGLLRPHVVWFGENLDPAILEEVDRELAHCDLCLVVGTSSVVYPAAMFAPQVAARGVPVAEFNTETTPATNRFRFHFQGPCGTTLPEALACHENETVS
Experimental: The cellular activity of probes 2A and 2B was also investigated. […] SIRT5 is known to deacetylate and activate carbamoyl phosphate synthetase I (CPS1), which is the enzyme catalyzing the first step of the urea cycle. Cells were treated with either probe 2B or a known SIRT5 inhibitor, suramin, before the acetylation level of CPS1 (CPS1Ac) was examined.
(§1) The cell lysate was resolved on a 10% SDS-PAGE gel and transferred to Immobilon PVDF transfer membrane (Millipore, Burlington, MA, USA). The blot was blocked with 5% nonfat milk, probed with primary antibody targeting H3K9Ac (Sigma-Aldrich, St. Louis, MO, USA), H3 (Abcam, Cambridge, MA, USA), acetyllysine or CPS1 (Cell Signaling Technology, Beverly, MA, USA), washed with PBST, followed by incubation with anti-rabbit or anti-mouse HRP conjugated secondary antibody. Then, the signal was detected by SuperSignal West Pico Chemiluminescent substrate (Thermo Fisher Scientific, Rockford, IL, USA).

[2] = biological target: T2, wild-type SIRT6 (wtSIRT6) (Homo sapiens, UniProt Q8N6T7); assay: Labeling of wild-type SIRT6; assay type: biochemical
T2 construct: host or cells: E. coli (inferred from b12)
T2 sequence (Q8N6T7 whole entry): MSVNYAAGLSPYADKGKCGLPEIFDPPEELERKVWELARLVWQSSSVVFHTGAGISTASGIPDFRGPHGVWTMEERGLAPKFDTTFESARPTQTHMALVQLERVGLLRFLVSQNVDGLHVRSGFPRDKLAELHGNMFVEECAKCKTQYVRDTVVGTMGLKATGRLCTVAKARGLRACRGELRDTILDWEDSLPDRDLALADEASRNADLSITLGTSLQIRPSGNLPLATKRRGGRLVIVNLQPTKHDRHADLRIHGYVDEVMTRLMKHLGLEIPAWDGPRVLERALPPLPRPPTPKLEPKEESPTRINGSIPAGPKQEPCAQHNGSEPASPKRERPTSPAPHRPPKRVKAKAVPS
Experimental: (§2) Remarkably, probe 2C was also able to label individual sirtuin isoforms in cell lysates. HEK293 cells overexpressing human SIRT2 were lysed, and the lysate was subjected to the labeling by 10 μM probe 2C.
(§3) A typical labeling experiment was performed as follows: in a 0.7 mL Eppendorf tube, purified recombinant human sirtuin (10 μM) was incubated with NAD^+ (500 μM) and activity-based probe at 37 °C for 10 min. The sample was transferred to a clear-bottom 96-well plate, placed on ice, and irradiated at 365 nm with a UV-lamp in a cold room. Subsequently, ingredients of the “click-chemistry” including azide-fluor 545, CuSO4, reducing agent (tris(2-carboxyethyl)phosphine, TCEP) and stabilizing agent (tris[(1-benzyl-1H-1,2,3-triazol-4-yl)methyl]amine, TBTA) were added, and the sample was gently agitated at 250 rpm on a microshaker at room temperature for 30 min. Then, the sample was resolved by SDS-PAGE. To […] the signal to noise ratio, the gel was destained to eliminate non-specific binding of free dyes. This was done in a mixture of methanol/distilled water/acetic acid (v/v/v = 4/5/1) at ambient temperature for 4 h. Then, destained gel was analyzed with in-gel fluorescence scanning using a Biorad ChemiDoc MP imager (excitation 532 nm, 580 nm cut-off filter and 30 nm band-pass). Finally, Coomassie blue staining was applied to provide loading control.

[3] = biological target: SIRT6H133Y (Homo sapiens, UniProt Q8N6T7, H133Y); assay: Labeling of catalytically inactive mutant SIRT6H133Y; assay type: biochemical
SIRT6H133Y, sequence (Q8N6T7 whole entry H133Y): as the sequence (Q8N6T7 whole entry) above, with H133Y counted along it
Experimental: as §2, §3

[4] = biological target: T3, SIRT2 (Homo sapiens, UniProt Q8IXJ6); assay: Cell lysate labeling, SIRT2-overexpressing HEK293; assay type: biochemical; details: 10 μM probe
T3 construct: expressed in transfected cells; host or cells: HEK293
T3 sequence (Q8IXJ6 1-389): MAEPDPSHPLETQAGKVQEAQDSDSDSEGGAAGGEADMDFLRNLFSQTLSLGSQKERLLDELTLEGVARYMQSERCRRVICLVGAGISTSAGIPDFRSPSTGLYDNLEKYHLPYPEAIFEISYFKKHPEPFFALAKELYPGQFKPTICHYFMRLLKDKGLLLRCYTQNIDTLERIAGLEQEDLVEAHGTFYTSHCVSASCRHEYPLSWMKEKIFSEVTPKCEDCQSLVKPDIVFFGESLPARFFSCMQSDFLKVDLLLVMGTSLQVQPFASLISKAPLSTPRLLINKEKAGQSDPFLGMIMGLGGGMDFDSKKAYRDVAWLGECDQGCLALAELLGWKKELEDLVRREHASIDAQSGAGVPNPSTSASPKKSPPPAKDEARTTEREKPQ
Experimental: as §2
Cells were harvested and lysed with RIPA buffer (Thermo Fisher Scientific, Rockford, IL, USA) supplemented with protease inhibitor cocktail (Thermo Fisher Scientific, Rockford, IL, USA). Protein concentration was determined by Bradford assay. A typical labeling experiment contained 4 to 24 μg of protein, 500 μM NAD^+, and 10 μM probe in 100 mM phosphate buffer pH 7.5. The photoaffinity labeling, “click” conjugation to fluorescent dye and visualization were similar to the protocols for labeling recombinant sirtuins as described above.

[5] = biological target: SIRT6 (Homo sapiens, UniProt Q8N6T7); assay: Western blot of H3K9Ac in HEK293 cells; assay type: cell-based
SIRT6, sequence (Q8N6T7 whole entry): as the sequence (Q8N6T7 whole entry) above
Text: The ABPs structurally mimic acylated lysine substrates. However, the presence of substituents could potentially alter their cell permeability, cellular distribution, and target engagement ability. It is essential to determine if these probes are cell permeable and capable of inhibiting endogenous sirtuin activity. The sirtuin family of proteins are often referred to as the class III histone deacetylases (HDACs). Unlike class I and class II HDACs, which are Zn^2+-dependent, sirtuins are NAD^+-dependent. […] Similarly, other sirtuins may not be the only deacetylase of their endogenous substrates. Therefore, the inhibitory effect of the other ABPs may only become apparent when class I/II HADCs are inhibited at the same time. HEK293 cells were cultured in the presence of probe 2C and/or other HDAC inhibitors. Subsequently, the cell lysates were collected and probed for acetylated H3K9 (H3K9Ac), which is an endogenous substrate of SIRT6.
as §1

CPS1Ac level compared to control [1]	labeling of SIRT6H133Y [3]	amount of cell lysate in which labeling was still observed [4] [µg]	labeling of SIRT2 in cell lysate ([4]; lysate of HEK293 cells overexpressing human SIRT2)	H3K9Ac level, combination with TSA ([5]; combined with TSA)	H3K9Ac level, treatment alone ([5]; single agent)	Structure (SMILES)	labeling of wtSIRT6 [2]
increased CPS1Ac level	–	–	–	–	–	C#CCCCC1(CCC(=O)N[C@@H](CCCCNC(=S)CCC(=O)O)C(=O)N[C@@H](C)C(=O)N[C@@H](C)C(=O)OC)N=N1 [Probe 2B]	–
–	failed to label	4	clean and selective labeling of SIRT2	significantly elevated level of H3K9Ac	did not cause any appreciable changes	C#CCCCC1(CCC(=O)N[C@@H](CCCCNC(=S)CCCCCCCCCCCCC)C(=O)N[C@@H](C)C(=O)N[C@@H](C)C(=O)OC)N=N1 [Probe 2C]	concentration-dependent labeling of wild-type SIRT6
